Results reported in patent US7138361B2, “Herbicidal heterocycles” (E. I. du Pont de Nemours and Company, priority 2000, dated 2006).

How the values were obtained:
Assay type in all cases: in vivo
[1] = tested on: giant foxtail (Setaria faberii); test: Test B postemergence
Outline: (§1)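 Visual injury scores, 0 = no effect to 100 = complete control, assigned against controls after 13 to 15 days in the greenhouse. Compounds formulated in non-phytotoxic solvent plus surfactant and applied to soil after planting (pre) or onto foliage of 1- to 4-leaf plants (post).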

[2] = tested on: velvetleaf (Abutilon theophrasti); test: Test B postemergence
Outline: as §1

[3] = tested on: pigweed (Amaranthus retroflexus); test: Test B postemergence
Outline: as §1

[4] = tested on: Surinam grass (Brachiaria decumbens); test: Test B postemergence
Outline: as §1

[5] = tested on: blackgrass (Alopecurus myosuroides); test: Test B postemergence; settings: 13 to 15 days
Outline: as §1

[6] = tested on: morning glory (Ipomoea hederacea); test: Test B postemergence
Outline: as §1

[7] = tested on: barnyardgrass (Echinochloa crus-galli); test: Test B postemergence
Outline: as §1

[8] = tested on: wheat (Triticum aestivum); test: Test B postemergence
Outline: as §1

corn (Zea mays) [9] = test: Test B postemergence
Outline: as §1

Sunflower = test: Test C preemergence; settings: scale 0 to 100, 0 no effect, 100 complete control
[10] = tested on: smallflower flatsedge (Cyperus difformis); test: Test C flooded paddy test; settings: for Flatsedge plant response rating: Flooded Paddy, scale 0 to 100, 0 no effect, 100 complete control; for Plant response rating, Flatsedge: flooded paddy test, scale 0 to 100 (0 no effect, 100 complete control)
Outline: (§2)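 Plants were grown to the 2-leaf stage under flooded paddy conditions and treated. They were then kept in a greenhouse for 12 to 14 days and visually rated against untreated controls on a 0–100 scale, where 0 is no effect and 100 is complete control.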

rice (Oryza saliva) [11] = test: Test C flooded paddy test; settings: for Rice plant response rating: Flooded Paddy, scale 0 to 100, 0 no effect, 100 complete control; for Plant response rating, Rice: flooded paddy test, scale 0 to 100 (0 no effect, 100 complete control)
Outline: as §2

[12] = tested on: barnyardgrass (Echinochloa crus-galli); test: Test C flooded paddy test; settings: for Barnyardgrass plant response rating: Flooded Paddy, scale 0 to 100, 0 no effect, 100 complete control; for Plant response rating, Barnyardgrass: flooded paddy test, scale 0 to 100 (0 no effect, 100 complete control)
Outline: as §2

[13] = tested on: duck salad (Heteranthera limosa); test: Test C flooded paddy test; settings: for Ducksalad plant response rating: Flooded Paddy, scale 0 to 100, 0 no effect, 100 complete control; for Plant response rating, Ducksalad: flooded paddy test, scale 0 to 100 (0 no effect, 100 complete control)
Outline: as §2

Nightshade = test: Test C preemergence; settings: visual evaluation after 12 to 14 days
[14] = tested on: giant foxtail (Setaria faberii); test: Test B preemergence
Outline: as §1

[15] = tested on: velvetleaf (Abutilon theophrasti); test: Test B preemergence
Outline: as §1

[16] = tested on: pigweed (Amaranthus retroflexus); test: Test B preemergence
Outline: as §1

[17] = tested on: Surinam grass (Brachiaria decumbens); test: Test B preemergence
Outline: as §1

[18] = tested on: lambsquarters (Chenopodium album); test: Test B preemergence
Outline: as §1

[19] = tested on: crabgrass (Digitaria sanguinalis); test: Test B preemergence
Outline: as §1

[20] = tested on: morning glory (Ipomoea hederacea); test: Test B preemergence
Outline: as §1

rice (Oryza saliva) [21] = test: Test B preemergence
Outline: as §1

[22] = tested on: cocklebur (Xanthium strumarium); test: Test B preemergence
Outline: as §1

[23] = tested on: barnyardgrass (Echinochloa crus-galli); test: Test B preemergence
Outline: as §1

corn (Zea mays) [24] = test: Test B preemergence
Outline: as §1

[25] = Rate 125 g/ha, scale 0 (no effect) to 100 (complete control), 13 to 15 days
[26] = Rate 500 g/ha, scale 0 to 100, 0 is no effect, 100 is complete control, 13 to 15 days
[27] = Rate 125 g/ha, scale 0 (no effect) to 100 (complete control)
[28] = Rate 500 g/ha, scale 0 to 100, 0 is no effect, 100 is complete control
[29] = Preemergence, Rate 500 g/ha, scale 0 to 100, 0 no effect, 100 complete control
[30] = preemergence, Rate 125 g/ha, scale of 0 to 100 where 0 is no effect and 100 is complete control, 13 to 15 days
[31] = Rate 125 g/ha, scale 0 to 100, 0 no effect, 100 complete control
[32] = preemergence, Rate 125 g/ha, scale 0 to 100, 0 no effect, 100 complete control

CC(C)Oc1cccc(N2CCC(n3ccc(C(C)(C)C)n3)C2=O)c1 (stereo not shown) [Compound 70]
Plant response rating, Foxtail, Giant [1, 25]: 0 | Plant response rating, Foxtail, Giant [1, 26]: 0 | Plant response rating, Velvetleaf [2, 25]: 0 | Plant response rating, Velvetleaf [2, 26]: 0 | Plant response rating, Pigweed [3, 25]: 0 | Plant response rating, Pigweed [3, 26]: 0 | Plant response rating, Surinam grass [4, 25]: 0 | Plant response rating, Surinam grass [4, 26]: 0 | Plant response rating, Blackgrass [5, 27]: 0 | Plant response rating, Blackgrass [5, 28]: 0 | Plant response rating, Morningglory [6, 25]: 30 | Plant response rating, Morningglory [6, 26]: 30 | Plant response rating, Barnyardgrass [7, 25]: 0 | Plant response rating, Barnyardgrass [7, 26]: 0 | Plant response rating, Wheat [8, 25]: 0 | Plant response rating, Wheat [8, 26]: 0 | Plant response rating, Corn (corn (Zea mays) [9]; [25]): 0 | Plant response rating, Corn (corn (Zea mays) [9]; [26]): 0 | Plant response rating, Sunflower (Sunflower; Rate 125 g/ha): 20 | Plant response rating, Sunflower (Sunflower; Rate 250 g/ha): 60 | Flatsedge plant response rating ([10]; Rate 250 g/ha): 90 | Flatsedge plant response rating ([10]; Rate 500 g/ha): 90 | Plant response rating, Flatsedge ([10]; Rate 62 g/ha): 90 | Rice plant response rating (rice (Oryza saliva) [11]; Rate 250 g/ha): 60 | Rice plant response rating (rice (Oryza saliva) [11]; Rate 500 g/ha): 90 | Plant response rating, Rice (rice (Oryza saliva) [11]; Rate 62 g/ha): 20 | Barnyardgrass plant response rating ([12]; Rate 250 g/ha): 100 | Barnyardgrass plant response rating ([12]; Rate 500 g/ha): 100 | Plant response rating, Barnyardgrass ([12]; Rate 62 g/ha): 60 | Ducksalad plant response rating ([13]; Rate 250 g/ha): 100 | Ducksalad plant response rating ([13]; Rate 500 g/ha): 100 | Plant response rating, Ducksalad ([13]; Rate 62 g/ha): 100 | Plant response rating (0 to 100), Nightshade (Nightshade; Rate 500 g/ha): 70 | Plant response rating, Foxtail, Giant [14, 29]: 100 | Plant response rating, Foxtail, Giant [14, 30]: 90 | Plant response rating, Velvetleaf [15, 29]: 0 | Plant response rating, Velvetleaf [15, 30]: 0 | Plant response rating, Pigweed [16, 29]: 100 | Plant response rating, Pigweed [16, 30]: 100 | Plant response rating, Surinam grass [17, 29]: 0 | Plant response rating, Surinam grass [17, 30]: 0 | Plant response rating, Lambsquarters [18, 29]: 100 | Plant response rating, Lambsquarters [18, 30]: 100 | Plant response rating, Crabgrass [19, 29]: 100 | Plant response rating, Crabgrass [19, 30]: 90 | Plant response rating, Morningglory [20, 29]: 80 | Plant response rating, Morningglory [20, 30]: 20 | Plant response rating, Rice (rice (Oryza saliva) [21]; [29]): 30 | Plant response rating, Rice (rice (Oryza saliva) [21]; [30]): 30 | Plant response rating, Cocklebur [22, 29]: 0 | Plant response rating, Cocklebur [22, 30]: 0

Cc1ccc(N2CCC(n3ccc(C(C)(C)C)n3)C2=O)cc1I (stereo not shown) [Compound 122]
Plant response rating, Foxtail, Giant [1, 31]: 0 | Plant response rating, Velvetleaf [2, 31]: 0 | Plant response rating, Pigweed [3, 31]: 30 | Plant response rating, Surinam grass [4, 31]: 0 | Plant response rating, Surinam grass [4, 26]: 0 | Plant response rating, Morningglory [6, 31]: 20 | Plant response rating, Barnyardgrass [7, 31]: 0 | Plant response rating, Barnyardgrass [7, 26]: 0 | Plant response rating, Wheat [8, 31]: 0 | Plant response rating, Corn (corn (Zea mays) [9]; [31]): 0 | Plant response rating, Corn (corn (Zea mays) [9]; [26]): 0 | Plant response rating, Sunflower (Sunflower; Rate 250 g/ha): 0 | Flatsedge plant response rating ([10]; Rate 250 g/ha): 80 | Flatsedge plant response rating ([10]; Rate 500 g/ha): 100 | Plant response rating, Flatsedge ([10]; Rate 62 g/ha): 0 | Plant response rating, Flatsedge ([10]; Rate 125 g/ha): 80 | Rice plant response rating (rice (Oryza saliva) [11]; Rate 250 g/ha): 0 | Rice plant response rating (rice (Oryza saliva) [11]; Rate 500 g/ha): 0 | Plant response rating, Rice (rice (Oryza saliva) [11]; Rate 62 g/ha): 0 | Plant response rating, Rice (rice (Oryza saliva) [11]; Rate 125 g/ha): 0 | Barnyardgrass plant response rating ([12]; Rate 250 g/ha): 0 | Barnyardgrass plant response rating ([12]; Rate 500 g/ha): 100 | Plant response rating, Barnyardgrass ([12]; Rate 62 g/ha): 0 | Plant response rating, Barnyardgrass ([12]; Rate 125 g/ha): 0 | Ducksalad plant response rating ([13]; Rate 250 g/ha): 30 | Ducksalad plant response rating ([13]; Rate 500 g/ha): 60 | Plant response rating, Ducksalad ([13]; Rate 62 g/ha): 20 | Plant response rating, Ducksalad ([13]; Rate 125 g/ha): 20 | Plant response rating (0 to 100), Nightshade (Nightshade; Rate 500 g/ha): 90 | Plant response rating, Foxtail, Giant [14, 29]: 30 | Plant response rating, Foxtail, Giant [14, 30]: 20 | Plant response rating, Velvetleaf [15, 29]: 0 | Plant response rating, Velvetleaf [15, 30]: 0 | Plant response rating, Pigweed [16, 29]: 100 | Plant response rating, Pigweed [16, 30]: 100 | Plant response rating, Surinam grass [17, 29]: 70 | Plant response rating, Surinam grass [17, 30]: 50 | Plant response rating, Lambsquarters [18, 29]: 100 | Plant response rating, Lambsquarters [18, 30]: 100 | Plant response rating, Crabgrass [19, 29]: 100 | Plant response rating, Crabgrass [19, 30]: 100 | Plant response rating, Morningglory [20, 29]: 0 | Plant response rating, Morningglory [20, 30]: 0 | Plant response rating, Rice (rice (Oryza saliva) [21]; [29]): 0 | Plant response rating, Rice (rice (Oryza saliva) [21]; [30]): 0 | Plant response rating, Barnyardgrass [23, 29]: 100 | Plant response rating, Barnyardgrass [23, 30]: 0 | Plant response rating, Corn (corn (Zea mays) [24]; [29]): 0 | Plant response rating, Corn (corn (Zea mays) [24]; [30]): 0 | Plant response rating, Cocklebur [22, 29]: 0 | Plant response rating, Cocklebur [22, 30]: 0

CC(C)(C)c1ccn(C2CCN(c3cccc(Br)c3)C2=O)n1 (stereo not shown) [Compound 33]
Plant response rating, Foxtail, Giant [1, 25]: 0 | Plant response rating, Foxtail, Giant [1, 26]: 20 | Plant response rating, Velvetleaf [2, 25]: 0 | Plant response rating, Velvetleaf [2, 26]: 0 | Plant response rating, Pigweed [3, 25]: 70 | Plant response rating, Pigweed [3, 26]: 80 | Plant response rating, Surinam grass [4, 25]: 0 | Plant response rating, Surinam grass [4, 26]: 0 | Plant response rating, Blackgrass [5, 27]: 0 | Plant response rating, Blackgrass [5, 28]: 0 | Plant response rating, Morningglory [6, 25]: 0 | Plant response rating, Morningglory [6, 26]: 10 | Plant response rating, Barnyardgrass [7, 25]: 0 | Plant response rating, Barnyardgrass [7, 26]: 0 | Plant response rating, Wheat [8, 25]: 0 | Plant response rating, Wheat [8, 26]: 0 | Plant response rating, Corn (corn (Zea mays) [9]; [25]): 0 | Plant response rating, Corn (corn (Zea mays) [9]; [26]): 0 | Plant response rating, Sunflower (Sunflower; Rate 125 g/ha): 0 | Plant response rating (0 to 100), Nightshade (Nightshade; Rate 250 g/ha): 0 | Plant response rating, Foxtail, Giant [14, 29]: 80 | Plant response rating, Foxtail, Giant [14, 32]: 20 | Plant response rating, Velvetleaf [15, 29]: 0 | Plant response rating, Pigweed [16, 29]: 100 | Plant response rating, Surinam grass [17, 29]: 60 | Plant response rating, Surinam grass [17, 32]: 30 | Plant response rating, Lambsquarters [18, 29]: 100 | Plant response rating, Lambsquarters [18, 32]: 90 | Plant response rating, Crabgrass [19, 29]: 100 | Plant response rating, Crabgrass [19, 32]: 0 | Plant response rating, Morningglory [20, 29]: 0 | Plant response rating, Rice (rice (Oryza saliva) [21]; [29]): 0 | Plant response rating, Barnyardgrass [23, 29]: 80 | Plant response rating, Barnyardgrass [23, 32]: 30 | Plant response rating, Corn (corn (Zea mays) [24]; [29]): 0 | Plant response rating, Corn (corn (Zea mays) [24]; [32]): 0 | Plant response rating, Cocklebur [22, 32]: 0
